Laboratory results taken from patent US20250195491A1 (AEVIS BIO, INC., priority 2022, published 2025).

System: Aiolos and Ikaros
Assay: Aiolos and Ikaros degradation by immunoblotting in MM.1S cells
Format: cell-based, human
Details: immunoblot
Procedure: To this end, the MM.1S cell line was cultured in an RPMI medium (Corning, MD, USA) supplemented with 10% fetal bovine serum (Corning, MD, USA), 100 U/mL of penicillin (Corning, MD, USA), and 100 μg/mL of streptomycin (Corning, MD, USA) at 37° C. in a 5% CO2 incubator. […] The cells were disrupted by adding a RIPA buffer containing a protease inhibitor cocktail (Thermo Fisher Scientific) and centrifuged at 14,000 rpm for 15 minutes at 4° C. to obtain a cell extract. Equal amounts of the cell extract were loaded, and proteins were separated through SDS-PAGE and then transferred to a PVDF membrane. The protein-transferred membrane was blocked using skim milk, incubated with a primary antibody for 3 hours at room temperature, and then incubated with an HRP-conjugated secondary antibody for 1 hour at room temperature. The resulting product was washed with TBS-T three times between steps. Detection was performed using a chemoluminescence reagent (Thermo Fisher Scientific), and confirmed using Chemidoc (iBright CL1500, Invitrogen, CA, USA). Aiolos (#15103), Ikaros (#9034) and GAPDH (#2118S) antibodies used as primary antibodies and a secondary antibody were purchased from Cell Signaling Technology (Danvers, MA, USA).
Additionally, the expression of Aiolos and Ikaros, mediated by 3-MP, was confirmed over time. […]

Nc1cccc2c1C(=S)N(C1CCC(=O)NC1=O)C2=O (centres unmarked) [3-MP, 3-thiopomalidomide]
expression of Aiolos and Ikaros over time (10 μM, 1, 4, 8, 12, or 24 hours, FIG. 3B): does not reduce the expression of Aiolos and Ikaros
expression of Aiolos and Ikaros, by concentration (0.000128-10 μM, 4 hours, FIG. 3A): does not reduce the expression of Aiolos and Ikaros
